What was measured:
PYY-preferring receptor = conditions: Laburthe et al., 1986, 1990; cited from earlier work
Y3 receptor = conditions: Table 1, rank orders from published reports; cited from earlier work
PP receptor = conditions: Table 1, rank orders from published reports; cited from earlier work
Y1 receptor [1] = biological target: T1, Y1 receptor (Homo sapiens, UniProt P25929); conditions: Table 1, rank orders from published reports; cited from earlier work
T1 sequence (P25929 1-384): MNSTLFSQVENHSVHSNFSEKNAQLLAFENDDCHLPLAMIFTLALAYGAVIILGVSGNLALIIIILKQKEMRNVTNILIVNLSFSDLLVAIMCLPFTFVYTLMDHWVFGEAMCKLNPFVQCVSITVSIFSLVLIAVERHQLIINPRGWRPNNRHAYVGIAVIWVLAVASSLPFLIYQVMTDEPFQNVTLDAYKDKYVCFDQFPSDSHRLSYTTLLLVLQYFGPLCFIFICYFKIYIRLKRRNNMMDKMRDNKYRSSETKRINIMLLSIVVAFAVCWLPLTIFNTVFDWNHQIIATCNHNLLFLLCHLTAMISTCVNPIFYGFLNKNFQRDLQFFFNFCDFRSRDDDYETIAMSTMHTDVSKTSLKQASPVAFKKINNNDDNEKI

Y1 receptor [2] = biological target: T1, Y1 receptor; assay: Competitive displacement / binding of 125I-PYY, membranes of COS-7 cells transiently expressing human Y1 receptors; set-up: expressed in transfected cells; host or cells: COS-7
Protocol: (§1) Cell culture: COS-7 cells were grown on 150 mm plates (Corning) in D-MEM with supplements (Dulbecco's Modified Eagle Medium with 10% bovine calf serum, 2 mM glutamine, 100 units/ml penicillin/80 units/ml streptomycin) at 37° C., 5% CO2.
Membrane Harvest: Membranes were harvested from COS-7 cells 48 hours after transfection and from SK-N-Be(2) seven days after splitting.
(§2) Radioligand Binding to Membrane Suspensions: Membrane suspensions were diluted in binding buffer supplemented with 0.1% bovine serum albumin and 0.1% bacitracin to yield an optimal membrane protein concentration: ˜0.02 mg/ml for human Y1 receptors, ˜0.015 mg/ml for hp25a receptors, and ˜0.25 mg/ml for SK-N-Be(2). […] Incubations were terminated by filtration over Whatman GF/C filters (pre-coated with 0.5% polyethyleneimine and air-dried before use). […] Specific binding in time course and competition studies was typically 80%; most non-specific binding was associated with the filter.

[3] = biological target: T2, human hp25a (Y4) receptor (Homo sapiens, UniProt P50391); assay: Competitive displacement / binding of 125I-PYY, membranes of COS-7 cells transiently expressing hp25a (human Y4) receptors
T2 construct: The entire coding region of hp25a (1127 bp); expressed in transfected cells; host or cells: COS-7
T2 sequence (P50391 whole entry): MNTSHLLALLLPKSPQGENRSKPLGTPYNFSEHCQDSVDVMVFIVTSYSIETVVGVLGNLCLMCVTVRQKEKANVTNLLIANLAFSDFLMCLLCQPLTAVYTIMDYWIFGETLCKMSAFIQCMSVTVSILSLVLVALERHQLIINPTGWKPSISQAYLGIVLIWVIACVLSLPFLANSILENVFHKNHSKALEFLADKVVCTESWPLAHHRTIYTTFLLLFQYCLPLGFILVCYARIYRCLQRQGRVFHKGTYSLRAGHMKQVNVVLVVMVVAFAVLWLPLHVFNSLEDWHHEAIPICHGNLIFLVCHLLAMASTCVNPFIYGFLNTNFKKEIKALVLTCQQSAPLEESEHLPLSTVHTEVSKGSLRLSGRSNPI
Protocol: as §1
Membrane Harvest: Membranes were harvested from COS-7 cells 48 hours after transfection and from SK-N-Be(2) seven days after splitting. […] Large particles and debris were cleared by low speed centrifugation (200×g, 10 min, 4° C.).
as §2

[4] = N-terminal deletion of porcine NPY

PYY: peptide YY, species not stated at the place
higher affinity for PYY than for NPY (PYY-preferring receptor): 5-10 fold | Affinity (−pKi or −pEC50), Y3 (Y3 receptor): <6

[LEU^31, Pro^34]NPY: analog of NPY modified at residues 31 and 34, species not stated (Table 1)
Affinity (−pKi or −pEC50), PP (PP receptor): 9 to 8

NPY2-36: NPY fragment 2-36, species not stated (Table 1)
Affinity (−pKi or −pEC50), Y1 (Y1 receptor [1]): 9 to 8

[Pro^34]NPY: NPY analog with Pro34 (Table 1)
Affinity (−pKi or −pEC50), Y3 (Y3 receptor): 9 to 8

Neuropeptide Y [NPY]
Affinity (−pKi or −pEC50), PP (PP receptor): <6 | Affinity (−pKi or −pEC50), Y3 (Y3 receptor): 10 to 9

NPY13-36: NPY carboxyl-terminal fragment 13-36, species not stated; b153 folds follow porcine data
decrease in affinity compared with full length parent peptide, human Y1 receptors (Y1 receptor [2]; [4]): 1000 fold | decrease in affinity compared with full length parent peptide, hp25a [3, 4]: 33 fold

^125I-PYY
observed association rate (Kobs) (Y1 receptor [2]; human Y1 in COS-7): 0.06 ± 0.02 min⁻¹ | observed association rate (Kobs) ([3]; hp25a, 0.06 nM 125I-PYY): 0.12 ± 0.02 min⁻¹
